Test in all cases: Post-emergence efficacy, glasshouse spray test
Format in all cases: in vivo

In experiment [1] the test system is Amaranthus palmeri (AMAPA). Particulars: 312 h, read-out: Control of weed species AMAPA after post-emergence application (100=total damage to plant; 0=no damage to plant). Here is the method:
(§1) Seeds of a variety of test species were sown in standard soil in pots. After cultivation for 14 days (post-emergence) under controlled conditions in a glasshouse (at 24/16° C., day/night; 14 hours light; 65% humidity), the plants were sprayed with an aqueous spray solution derived from the dissolution of the technical active ingredient formula (I) in a small amount of acetone and a special solvent and emulsifier mixture referred to as IF50 (11.12% Emulsogen EL360 TM+44.44% N-methylpyrrolidone+44.44% Dowanol DPM glycol ether), to create a 50 g/l solution which was then diluted to required concentration using 0.25% or 1% Empicol ESC70 (Sodium lauryl ether sulphate)+1% ammonium sulphate as diluent.
(§2) The test plants were then grown in a glasshouse under controlled conditions (at 24/16° C., day/night; 14 hours light; 65% humidity) and watered twice daily. After 13 days the test was evaluated (100=total damage to plant; 0=no damage to plant).
(§3) Ipomoea hederacea (IPOHE), Euphorbia heterophylla (EPHHL), Chenopodium album (CHEAL), Amaranthus palmeri (AMAPA), Lolium perenne (LOLPE), Digitaria sanguinalis (DIGSA), Eleusine indica (ELEIN), Echinochloa crus-galli (ECHCG), Setaria faberi (SETFA)

Experiment [2] concerns Chenopodium album (CHEAL). Particulars: 312 h, read-out: Control of weed species CHEAL after post-emergence application (100=total damage to plant; 0=no damage to plant). Here is the method: as §1, §2, §3
In experiment [3] the test system is Digitaria sanguinalis (DIGSA). The settings on record: 312 h, read-out: Control of weed species DIGSA after post-emergence application (100=total damage to plant; 0=no damage to plant). On the procedure:
as §1, §2, §3

Experiment [4] relates to Echinochloa crus-galli (ECHCG). Particulars: 312 h, read-out: Control of weed species ECHCG after post-emergence application (100=total damage to plant; 0=no damage to plant). Here is the method:
as §1, §2, §3

Another experiment relates to Eleusine indica (ELEIN). Particulars: 312 h, read-out: Control of weed species ELEIN after post-emergence application (100=total damage to plant; 0=no damage to plant). On the procedure: as §1, §2, §3
The test system of experiment [5] is Euphorbia heterophylla (EPHHL). Particulars: 312 h, read-out: Control of weed species EPHHL after post-emergence application (100=total damage to plant; 0=no damage to plant). On the procedure: as §1, §2, §3
Experiment [6] relates to Ipomoea hederacea (IPOHE). The settings on record: 312 h, read-out: Control of weed species IPOHE after post-emergence application (100=total damage to plant; 0=no damage to plant). Here is the method:
as §1, §2, §3

The test system of a further experiment is Lolium perenne (LOLPE). The settings on record: 312 h, read-out: Control of weed species LOLPE after post-emergence application (100=total damage to plant; 0=no damage to plant). On the procedure:
as §1, §2, §3

The next experiment relates to Setaria faberi (SETFA). Particulars: 312 h, read-out: Control of weed species SETFA after post-emergence application (100=total damage to plant; 0=no damage to plant). Here is the method: as §1, §2, §3
The mark [7] stands for this setting: 500 g/Ha, evaluated after 13 days.
Setting [8] is: 130 g/Ha, evaluated after 13 days.

Structures can show the parent of a compound that is named as a salt. Where two headings read alike, the source gives them in different places.

In the case of `Cc1cc(O)c(C(=O)C[n+]2ccc(-c3ncccn3)cn2)c(=O)o1` [Compound A2, 4-hydroxy-6-methyl-3-[2-(4-pyrimidin-2-ylpyridazin-1-ium-1-yl)acetyl]pyran-2-one trifluoroacetate], the pest or weed control at 500 g/ha in [1] (setting [7]) is 90%; in [2] (setting [7]) it was 0%; in [3] (setting [7]), 30%; in experiment [4] (setting [7]), 20%; in the experiment on Eleusine indica (ELEIN) (setting [7]), 70%; in experiment [5] (setting [7]) it was 70%. The pest or weed control at 500 g/ha in experiment [6] (setting [7]) is 10%; in the experiment on Lolium perenne (LOLPE) (setting [7]), 10%; with Setaria faberi (SETFA) (setting [7]), 20%.
On to `Cc1nnc(NC(=O)C[n+]2ccc(-c3ncccn3)cn2)s1` [Compound A3], for which the pest or weed control at 500 g/ha was 50% in [1] (setting [7]); 30% in experiment [2] (setting [7]); 0% in experiment [3] (setting [7]); 10% in [4] (setting [7]); 0% in the experiment on Eleusine indica (ELEIN) (setting [7]); 0% in the experiment with Lolium perenne (LOLPE) (setting [7]). For the same compound, the pest or weed control at 500 g/ha in the experiment on Setaria faberi (SETFA) (setting [7]) is 0%.
On to `Oc1cc(C[n+]2ccc(-c3ncccn3)cn2)on1` [Compound A9, 5-[(4-pyrimidin-2-ylpyridazin-1-ium-1-yl)methyl]isoxazol-3-ol 2,2,2-trifluoroacetate], for which the pest or weed control at 500 g/ha in experiment [1] (setting [7]) came out at 20%; in experiment [2] (setting [7]), 40%; in [3] (setting [7]) it was 40%; in [4] (setting [7]) it was 30%; in the experiment with Eleusine indica (ELEIN) (setting [7]), 20%; in experiment [5] (setting [7]) it was 30%. Also, the pest or weed control at 500 g/ha came out at 20% in [6] (setting [7]), 10% in the experiment with Lolium perenne (LOLPE) (setting [7]) and 20% in the experiment on Setaria faberi (SETFA) (setting [7]).
As to `O=C1NC(=O)C(CC[n+]2ccc(-c3ncccn3)cn2)S1` (stereo not drawn) [Compound A1, 5-[2-(4-pyrimidin-2-ylpyridazin-1-ium-1-yl)ethyl]thiazolidine-2,4-dione trifluoroacetate], the pest or weed control at 500 g/ha in experiment [1] was determined as 90%; in [2], 30%; in experiment [3], 60%; in [4], 50%; in the experiment with Eleusine indica (ELEIN), 70%; in experiment [5], 50%. In addition, the results for the pest or weed control at 500 g/ha (in experiment [6]; in the experiment with Lolium perenne (LOLPE); in the experiment on Setaria faberi (SETFA)) were 50%, 40% and 60%, respectively.
As to `O=C(C[n+]1ccc(-c2ncccn2)cn1)Nc1nccs1` [Compound A4], the pest or weed control at 500 g/ha in experiment [1] (setting [7]) is 70%; in experiment [2] (setting [7]), 60%; in [3] (setting [7]), 10%; in experiment [4] (setting [7]), 0%; in the experiment on Eleusine indica (ELEIN) (setting [7]), 80%; in [5] (setting [7]), 100%. In addition, the values for the pest or weed control at 500 g/ha (in experiment [6] (setting [7]); with Lolium perenne (LOLPE) (setting [7]); in the experiment on Setaria faberi (SETFA) (setting [7])) were 10%, 0% and 20%, respectively.
Take `Cn1nnnc1NC(=O)C[n+]1ccc(-c2ncccn2)cn1` [Compound A6]: the pest or weed control at 500 g/ha in [1] (setting [7]) is 90%; in experiment [2] (setting [7]), 90%; in [3] (setting [7]), 30%; in experiment [4] (setting [7]), 30%; with Eleusine indica (ELEIN) (setting [7]), 20%; in [5] (setting [7]) it was 80%. The pest or weed control at 500 g/ha in experiment [6] (setting [7]) was 40%; with Lolium perenne (LOLPE) (setting [7]) it was 0%; in the experiment on Setaria faberi (SETFA) (setting [7]), 30%.
Regarding `O=C(C[n+]1ccc(-c2ncccn2)cn1)Nc1nnn[n-]1` [Compound A7], the pest or weed control at 500 g/ha in experiment [1] (setting [7]) is 90%; in experiment [2] (setting [7]) it was 90%; in [3] (setting [7]), 30%; in experiment [4] (setting [7]), 20%; with Eleusine indica (ELEIN) (setting [7]), 30%; in experiment [5] (setting [7]), 30%. For the same compound, the pest or weed control at 500 g/ha in experiment [6] (setting [7]) was 30%; in the experiment with Lolium perenne (LOLPE) (setting [7]), 10%; in the experiment with Setaria faberi (SETFA) (setting [7]) it was 50%.
With `O=S(=O)(CC[n+]1ccc(-c2ncccn2)cn1)c1cnn[nH]1` [Compound A8, 4-pyrimidin-2-yl-1-[2-(1H-triazol-5-ylsulfonyl)ethyl]pyridazin-1-ium 2,2,2-trifluoroacetate], the pest or weed control at 130 g/ha worked out at 60% in experiment [1] (setting [8]); 0% in experiment [2] (setting [8]); 40% in experiment [4] (setting [8]); 50% with Eleusine indica (ELEIN) (setting [8]); 70% in experiment [5] (setting [8]); 20% in experiment [6] (setting [8]). Besides, the pest or weed control at 130 g/ha worked out at 0% in the experiment on Lolium perenne (LOLPE) (setting [8]) and 50% with Setaria faberi (SETFA) (setting [8]).
On to `O=C(C[n+]1ccc(-c2ncccn2)cn1)Nc1nncs1` [Compound A5], for which the pest or weed control at 500 g/ha in [1] (setting [7]) was 100%; in experiment [2] (setting [7]), 30%; in experiment [3] (setting [7]), 70%; in experiment [4] (setting [7]), 50%; in the experiment with Eleusine indica (ELEIN) (setting [7]) it was 70%; in experiment [5] (setting [7]), 20%. In addition, the results for the pest or weed control at 500 g/ha (in [6] (setting [7]); in the experiment on Lolium perenne (LOLPE) (setting [7]); in the experiment on Setaria faberi (SETFA) (setting [7])) were 20%, 0% and 20%, respectively.

The values are drawn from patent US20220127255A1, “HERBICIDAL COMPOUNDS” (SYNGENTA CROP PROTECTION AG, priority 2019, published 2022).
